Patent publication US9783536B2, “Nitrogen-containing heterocyclic compound or salt thereof” (FUJIFILM Corporation, priority 2013, dated 2017)
Where two headings read alike, the source gives them in different places.

Legend:
Type in all cases: biochemical
human PI3Kα protein = molecular target: T1, human PI3Kα protein (Homo sapiens, UniProt P42336); experiment: PI3Kα enzyme assay (ADP-Glo); conditions: read-out: PI3Kα enzyme inhibitory activity
T1 construct: purchased Carna Biosciences, Inc; host or cells: baculovirus expression system
T1 sequence (P42336 whole entry): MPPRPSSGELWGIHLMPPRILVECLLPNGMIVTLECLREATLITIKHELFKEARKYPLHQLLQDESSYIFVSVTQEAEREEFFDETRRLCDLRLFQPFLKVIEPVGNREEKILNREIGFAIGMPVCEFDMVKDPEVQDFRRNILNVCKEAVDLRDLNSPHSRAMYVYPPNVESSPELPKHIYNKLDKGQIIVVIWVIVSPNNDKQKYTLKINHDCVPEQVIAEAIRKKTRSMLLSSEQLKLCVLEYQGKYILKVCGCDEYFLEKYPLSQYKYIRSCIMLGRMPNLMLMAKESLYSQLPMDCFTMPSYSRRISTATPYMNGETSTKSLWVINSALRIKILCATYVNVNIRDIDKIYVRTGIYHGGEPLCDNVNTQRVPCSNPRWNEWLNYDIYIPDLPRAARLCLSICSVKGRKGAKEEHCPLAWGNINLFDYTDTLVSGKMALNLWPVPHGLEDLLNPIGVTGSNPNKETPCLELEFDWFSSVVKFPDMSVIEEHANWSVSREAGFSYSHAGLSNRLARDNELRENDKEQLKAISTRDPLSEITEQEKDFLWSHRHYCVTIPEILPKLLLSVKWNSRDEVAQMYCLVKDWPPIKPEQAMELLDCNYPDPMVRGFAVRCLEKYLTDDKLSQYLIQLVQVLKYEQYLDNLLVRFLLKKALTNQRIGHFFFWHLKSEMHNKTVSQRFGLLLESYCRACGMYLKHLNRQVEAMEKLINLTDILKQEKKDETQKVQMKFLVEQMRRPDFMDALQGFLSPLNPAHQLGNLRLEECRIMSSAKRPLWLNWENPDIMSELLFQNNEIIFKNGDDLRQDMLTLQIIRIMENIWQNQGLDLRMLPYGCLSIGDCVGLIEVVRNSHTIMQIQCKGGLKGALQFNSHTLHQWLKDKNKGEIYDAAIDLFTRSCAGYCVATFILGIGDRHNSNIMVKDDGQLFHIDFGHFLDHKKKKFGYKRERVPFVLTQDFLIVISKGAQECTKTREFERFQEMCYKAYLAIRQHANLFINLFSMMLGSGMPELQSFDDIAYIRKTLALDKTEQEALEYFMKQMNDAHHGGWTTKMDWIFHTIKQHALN
T1 sequence (P27986 whole entry partner): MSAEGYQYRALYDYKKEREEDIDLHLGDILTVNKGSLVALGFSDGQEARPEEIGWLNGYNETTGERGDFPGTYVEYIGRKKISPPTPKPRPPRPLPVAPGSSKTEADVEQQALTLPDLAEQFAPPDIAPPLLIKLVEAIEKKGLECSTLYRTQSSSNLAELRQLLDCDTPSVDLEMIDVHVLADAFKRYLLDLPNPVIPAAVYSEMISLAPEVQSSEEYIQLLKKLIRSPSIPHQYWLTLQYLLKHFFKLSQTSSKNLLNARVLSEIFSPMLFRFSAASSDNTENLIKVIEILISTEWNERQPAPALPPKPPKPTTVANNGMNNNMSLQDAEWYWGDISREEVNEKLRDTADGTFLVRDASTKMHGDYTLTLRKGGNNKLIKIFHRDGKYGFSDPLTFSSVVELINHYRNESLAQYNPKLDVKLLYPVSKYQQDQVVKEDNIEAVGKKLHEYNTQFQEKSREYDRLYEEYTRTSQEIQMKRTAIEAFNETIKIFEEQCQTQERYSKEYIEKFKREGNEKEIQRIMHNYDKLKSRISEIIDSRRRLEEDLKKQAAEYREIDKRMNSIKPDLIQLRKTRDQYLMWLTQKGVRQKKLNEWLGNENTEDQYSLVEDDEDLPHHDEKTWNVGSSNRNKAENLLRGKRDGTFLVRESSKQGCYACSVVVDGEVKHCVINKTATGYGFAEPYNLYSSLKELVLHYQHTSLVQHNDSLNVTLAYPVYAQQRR
Summary of the method: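 Biotinylated human PI3Kα (baculovirus-expressed, 4.5 nmol/L) pre-incubated 15 min with compound in Tris-HCl pH 7.5, MgCl2, BSA; reaction 60 min at 25° C with 50 μmol/L PIP2 and 100 μmol/L ATP final. ADP quantified by ADP-Glo luminescence; IC50 calculated.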

[1] = molecular target: T2, GST fusion human ERK2 protein (Homo sapiens, UniProt P28482); experiment: ERK2 enzyme assay (1); conditions: read-out: ERK2 enzyme inhibitory activity (1)
T2 construct: purchased Carna Biosciences, Inc; host or cells: E. coli expression system
T2 sequence (P28482 whole entry, the tested form may be a part): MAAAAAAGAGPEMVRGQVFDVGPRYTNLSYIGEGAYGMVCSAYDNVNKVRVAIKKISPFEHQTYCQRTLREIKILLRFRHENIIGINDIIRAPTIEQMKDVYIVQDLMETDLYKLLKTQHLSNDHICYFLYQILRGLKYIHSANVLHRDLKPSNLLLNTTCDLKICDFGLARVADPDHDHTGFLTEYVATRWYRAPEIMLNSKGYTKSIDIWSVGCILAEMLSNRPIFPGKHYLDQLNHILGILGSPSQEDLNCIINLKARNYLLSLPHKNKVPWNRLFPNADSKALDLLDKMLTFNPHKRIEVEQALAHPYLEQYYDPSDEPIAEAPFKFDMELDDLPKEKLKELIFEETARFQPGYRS
Summary of the method: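 IC50 derived from the proportion of phosphorylated 5-FAM peptide, separated from unphosphorylated peptide by microfluidic mobility shift. Compound was first preincubated 15 min at room temperature with 2.5 nmol/L kinase at pH 7.5, then 43.1 μmol/L ATP plus 4.25 μmol/L substrate reacted 120 min at 25 °C.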

[2] = molecular target: T2, GST fusion human ERK2 protein; experiment: ERK2 enzyme assay (2); conditions: read-out: ERK2 enzyme inhibitory activity (2)
Summary of the method: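 IC50 values come from mobility-shift measurement of phosphorylated versus unphosphorylated 5-FAM peptide substrate after EDTA quench. Beforehand, compound and 1.25 nmol/L E. coli-expressed GST–human ERK2 stood 15 min at room temperature (pH 7.5), then 1 mmol/L ATP and 4.25 μmol/L substrate (final) were added for 120 min at 25 °C.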

[3] = 4.5 nmol/L PI3Kα, PIP2 50 μmol/L, ATP 100 μmol/L
[4] = 2.5 nmol/L ERK2, ATP 43.1 μmol/L

| SMILES | IC50 (human PI3Kα protein; [3]) [µM] | IC50 [1, 4] [µM] | IC50 ([2]; 1.25 nmol/L ERK2, ATP 1 mmol/L) [µM] | IC50 (human PI3Kα protein) [µM] | IC50 ([1]; ERK2 enzyme assay (1)) [µM] | IC50 ([2]; ERK2 enzyme assay (2)) [µM] |
| --- | --- | --- | --- | --- | --- | --- |
| CC(C)Cc1cnnc(Nc2ccc3ncc(-c4cnn(CCCN5CCCC5)c4)cc3n2)c1 [Example 0292] |  |  |  | < 1 | < 1 | < 1 |
| CC(C)c1cnnc(Nc2ccc3ncc(-c4cnn(C5CCOCC5)c4)cc3n2)c1 [Example 0475, N-(5-isopropylpyridazin-3-yl)-7-(1-(tetrahydro-2H-pyran-4-yl)-1H-pyrazol-4-yl)-1,5-naphthyridine-2-amine] |  |  |  | < 1 | < 1 | < 1 |
| CCCc1nnc(Nc2ccc3ncc(-c4cnn(CCCN5CCCC5)c4)cc3n2)s1 [Example 0364] |  |  |  | < 1 | < 1 | < 1 |
| Cn1cc(-c2cnc3ccc(Nc4nncs4)nc3c2)cn1 [Example 0026, N-(7-(1-methyl-1H-pyrazol-4-yl)-1,5-naphthyridin-2-yl)-1,3,4-thiadiazole-2-amine] | < 1 | < 1 | < 1 |  |  |  |
| CC(C)c1cnnc(Nc2ccc3ncc(-c4cnn(CCCc5ccccc5)c4)cc3n2)c1 [Example 0372] |  |  |  | 1 to 10 | < 1 | < 1 |
| c1cncc(Cc2nnc(Nc3ccc4ncc(-c5cnn(CCCN6CCCC6)c5)cc4n3)s2)c1 [Example 0262] |  |  |  | < 1 | < 1 | < 1 |
| c1nc2ccc(Nc3nnc(CC4CCOC4)s3)nc2cc1-c1cnn(CCCN2CCCC2)c1 (stereo not drawn) [Example 0267] |  |  |  | < 1 | < 1 | < 1 |
| CCOc1nn(C)cc1-c1cnc2ccc(Nc3nnc(C(C)C)s3)nc2c1 [Example 0150] | < 1 | < 1 | 1 to 10 |  |  |  |
| COc1cncc(Nc2cnc3ccc(Nc4cc(C)cnn4)nc3c2)c1 [Example 0157, N^7-(5-methoxypyridin-3-yl)-N^2-(5-methylpyridazin-3-yl)-1,5-naphthyridine-2,7-diamine] | < 1 | < 1 | < 1 |  |  |  |
| CCc1nn(C)cc1-c1cnc2ccc(Nc3nnc(C(C)C)s3)nc2c1 [Example 0121] | < 1 | < 1 | < 1 |  |  |  |
| COc1nn(C)cc1-c1cnc2ccc(Nc3nnc(C(C)C)s3)nc2c1 [Example 0131] | < 1 | < 1 | < 1 |  |  |  |
| Cc1c(-c2cnc3ccc(Nc4nnc(C(C)C)s4)nc3c2)cnn1CCCN1CCCC1 [Example 0360, 5-Isopropyl-N-(7-(5-methyl-1-(3-(pyrrolidin-1-yl)propyl)-1H-pyrazol-4-yl)-1,5-naphthyridin-2-yl)-1,3,4-thiadiazole-2-amine] |  |  |  | < 1 | < 1 | < 1 |
| CC(C)Cc1nnc(Nc2ccc3ncc(-c4cnn(CCCN5CCCC5)c4)cc3n2)s1 [Example 0265] |  |  |  | < 1 | < 1 | < 1 |
| Cn1cc(-c2cnc3ccc(Nc4nnc(CS(C)(=O)=O)s4)nc3c2)cn1 [Example 0257, N-(7-(1-methyl-1H-pyrazol-4-yl)-1,5-naphthyridin-2-yl)-5-((methylsulfonyl)methyl)-1,3,4-thiadiazole-2-amine] |  |  |  | 1 to 10 | < 1 | < 1 |
| CC(C)c1cnnc(Nc2ccc3ncc(Nc4cncc(OCCN5CCOCC5)c4)cc3n2)c1 [Example 0159, N^2-(5-isopropylpyridazin-3-yl)-N^7-(5-(2-morpholinoethoxyl)pyridin-3-yl)-1,5-naphthyridine-2,7-diamine] | < 1 | < 1 | < 1 |  |  |  |
| CC(C)c1cnnc(Nc2ccc3ncc(-c4cnn(CCCN5CCN(C)CC5)c4)cc3n2)c1 [Example 0021, N-(5-isopropylpyridazin-3-yl)-7-(1-(3-(4-methylpiperazin-1-yl)propyl)-1H-pyrazol-4-yl)-1,5-naphthyridine-2-amine] | < 1 | < 1 | < 1 |  |  |  |
| c1cc(-c2ccnc3ccc(Nc4nnc(CC5CCCO5)s4)nc23)ccn1 (stereo not drawn) [Example 0276] |  |  |  | < 1 | < 1 | 1 to 10 |
| c1ccc(Cc2nnc(Nc3ccc4ncc(-c5cnn(CCCN6CCCC6)c5)cc4n3)s2)nc1 [Example 0261] |  |  |  | < 1 | < 1 | < 1 |

The next lines start with the values.

| IC50 (human PI3Kα protein; [3]) [µM] | IC50 [1, 4] [µM] | IC50 ([2]; 1.25 nmol/L ERK2, ATP 1 mmol/L) [µM] | IC50 (human PI3Kα protein) [µM] | IC50 ([1]; ERK2 enzyme assay (1)) [µM] | IC50 ([2]; ERK2 enzyme assay (2)) [µM] | SMILES |
| --- | --- | --- | --- | --- | --- | --- |
| < 1 | < 1 | < 1 |  |  |  | Cn1cc(-c2cnc3ccc(Nc4nnc(C5CCCC5)s4)nc3c2)cn1 [Example 0172, 5-cyclopentyl-N-(7-(1-methyl-1H-pyrazol-4-yl)-1,5-naphthyridin-2-yl)-1,3,4-thiadiazole-2-amine] |
|  |  |  | < 1 | < 1 | < 1 | OCCN1CCC(n2cc(-c3cnc4ccc(Nc5nnc(C6CCCC6)s5)nc4c3)cn2)CC1 [Example 0336, 2-(4-(4-(6-((5-cyclopentyl-1,3,4-thiadiazol-2-yl)amino)-1,5-naphthyridin-3-yl)-1H-pyrazol-1-yl)piperidin-1-yl)ethanol] |
|  |  |  | < 1 | < 1 | < 1 | OC(CN1CCCC1)Cn1cc(-c2cnc3ccc(Nc4nnc(C5CCCC5)s4)nc3c2)cn1 (stereo not drawn) [Example 0356, 1-(4-(6-((5-Cyclopentyl-1,3,4-thiadiazol-2-yl)amino)-1,5-naphthyridin-3-yl)-1H-pyrazol-1-yl)-3-(pyrrolidin-1-yl)propan-2-ol] |
| < 1 | < 1 | < 1 |  |  |  | c1ncc(OCCCN2CCOCC2)cc1Nc1cnc2ccc(Nc3nnc(C4CCCC4)s3)nc2c1 [Example 0084] |
| < 1 | < 1 | < 1 |  |  |  | CN(c1cccnc1)c1cnc2ccc(Nc3nnc(C4CCCC4)s3)nc2c1 [Example 0071] |
|  |  |  | 1 to 10 | < 1 | < 1 | C1=C(c2cnc3ccc(Nc4nnc(C5CCCC5)s4)nc3c2)CCOC1 [Example 0327] |
|  |  |  | 1 to 10 | < 1 | < 1 | Cc1n[nH]c(C)c1-c1cnc2ccc(Nc3nnc(C4CCCC4)s3)nc2c1 [Example 0215] |
| < 1 | < 1 | < 1 |  |  |  | CC(C)c1nnc(Nc2ccc3ncc(-c4cnn(C)c4)cc3n2)s1 [Example 0167, 5-Isopropyl-N-(7-(1-methyl-1H-pyrazol-4-yl)-1,5-naphthyridin-2-yl)-1,3,4-thiadiazole-2-amine] |
| < 1 | < 1 | 1 to 10 |  |  |  | Cn1cc(-c2cnc3ccc(Nc4nnc(C5CCCC5)s4)nc3c2)c(-c2ccccc2)n1 [Example 0129, 5-cyclopentyl-N-(7-(1-methyl-3-phenyl-1H-pyrazol-4-yl)-1,5-naphthyridin-2-yl)-1,3,4-thiadiazole-2-amine] |
| 1 to 10 | < 1 | < 1 |  |  |  | Cn1cc(-c2cnc3ccc(Nc4nnc(N5CCCC5)s4)nc3c2)cn1 [Example 0173, N-(7-(1-methyl-1H-pyrazol-4-yl)-1,5-naphthyridin-2-yl)-5-(pyrrolidin-1-yl)-1,3,4-thiadiazole-2-amine] |
|  |  |  | < 1 | < 1 | < 1 | OCCCN1CCC(n2cc(-c3cnc4ccc(Nc5nnc(C6CCCC6)s5)nc4c3)cn2)CC1 [Example 0337, 3-(4-(4-(6-((5-Cyclopentyl-1,3,4-thiadiazol-2-yl)amino)-1,5-naphthyridin-3-yl)-1H-pyrazol-1-yl)piperidin-1-yl)propan-1-ol] |
|  |  |  | < 1 | < 1 | < 1 | c1nc2ccc(Nc3nnc(C4CCCCC4)s3)nc2cc1-c1cnn(CCCN2CCCC2)c1 [Example 0236] |
| < 1 | < 1 | < 1 |  |  |  | CCCCc1nn(C)cc1-c1cnc2ccc(Nc3nnc(C4CCCC4)s3)nc2c1 [Example 0115] |
| < 1 | < 1 | < 1 |  |  |  | c1nc(CN2CCOCC2)ncc1Nc1cnc2ccc(Nc3nnc(C4CCCC4)s3)nc2c1 [Example 0116] |
| < 1 | < 1 | < 1 |  |  |  | Cc1nn(C)cc1-c1cnc2ccc(Nc3nnc(C(C)C)s3)nc2c1 [Example 0120] |
